Test results: the supplement of paper PMC4862054

Tests used:
Assay in all cases: normalised response (% of control), CellTiter-Glo; higher = more viable cells (100 = DMSO, 0 = benzethonium chloride kill control)
Conditions in all cases: incubation time: 72 h
BT-474 = test system: BT-474
Summary of the method: (§1)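 Breast cancer cell lines (20 µl suspension) were seeded into 384-well plates holding compound at 5 concentrations in 10-fold steps over a compound-specific 10,000-fold range, then incubated 72 h. CellTox Green fluorescence (485/520 nm) was read first, then CellTiter-Glo luminescence after 10 min at room temperature. Each plate was normalised to 0.1 % DMSO (100) and a positive kill control (0). Each value is the normalised signal at a single concentration of the series.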

BT-549 = test system: BT-549
Summary of the method: as §1

CAL-120 = test system: CAL-120
Summary of the method: as §1

CAL-148 = test system: CAL-148
Summary of the method: as §1

CAL-85-1 = test system: CAL-85-1
Summary of the method: as §1

DU-4475 = test system: DU-4475
Summary of the method: as §1

HCC1143 = test system: HCC1143
Summary of the method: as §1

HCC1599 = test system: HCC1599
Summary of the method: as §1

HCC1937 = test system: HCC1937
Summary of the method: as §1

HDQ-P1 = test system: HDQ-P1
Summary of the method: as §1

Hs578T = test system: Hs578T
Summary of the method: as §1

MCF-10A = test system: MCF-10A
Summary of the method: as §1

MDA-MB-436 = test system: MDA-MB-436
Summary of the method: as §1

MDA-MB-453 = test system: MDA-MB-453
Summary of the method: as §1

MDA-MB-468 = test system: MDA-MB-468
Summary of the method: as §1

SK-BR-3 = test system: SK-BR-3
Summary of the method: as §1

Row | Compound | normalised response (BT-474) [%] | normalised response (BT-549) [%] | normalised response (CAL-120) [%] | normalised response (CAL-148) [%] | normalised response (CAL-85-1) [%] | normalised response (DU-4475) [%] | normalised response (HCC1143) [%] | normalised response (HCC1599) [%] | normalised response (HCC1937) [%] | normalised response (HDQ-P1) [%] | normalised response (Hs578T) [%] | normalised response (MCF-10A) [%] | normalised response (MDA-MB-436) [%] | normalised response (MDA-MB-453) [%] | normalised response (MDA-MB-468) [%] | normalised response (SK-BR-3) [%]
1 | COc1ccc(-c2cc3c(C)nc(N)nc3n([C@H]3CC[C@H](OCCO)CC3)c2=O)cn1 (1000 nM) | 34.7 | 17.8 | 27 | 26.2 | 20.7 | 48 | 21.4 | 57.1 | 38.7 | 21.9 | 19.3 | 19.5 | 37.5 | 12.9 | 20.5 | 14.2
2 | COc1cc(CCc2cc(NC(=O)c3ccc(N4CC(C)NC(C)C4)cc3)n[nH]2)cc(OC)c1 (configuration not stated) [AZD4547] (100 nM) | 102 | 88.4 | 80 | 104 | 96.2 | 96.9 | 93.1 | 107 | 93.4 | 104 | 88.1 | 86.2 | 99.2 | 90.4 | 92.2 | 89.3
3 | CCC/C=C/C=C/C(=O)O[C@H]1/C(=C/C(=O)OC)C[C@H]2C[C@H]([C@@H](C)O)OC(=O)C[C@H](O)C[C@@H]3C[C@H](OC(C)=O)C(C)(C)[C@](O)(C[C@@H]4C/C(=C/C(=O)OC)C[C@H](/C=C/C(C)(C)[C@]1(O)O2)O4)O3 [Bryostatin 1] (10 nM) | 87.2 | 94.2 | 101 | 109 | 97.1 | 93.7 | 104 | 111 | 97.8 | 91.6 | 76.9 | 103 | 99.6 | 96.8 | 100 | 69.7
4 | CO[C@@H](C(=O)N1Cc2[nH]nc(NC(=O)c3ccc(N4CCN(C)CC4)cc3)c2C1)c1ccccc1 [Danusertib] (1000 nM) | 75.6 | 51.4 | 75.7 | 72.2 | 90.8 | 83.7 | 75.1 | 105 | 89.3 | 82.5 | 81.6 | 46.2 | 80.9 | 156 | 33.6 | 91.2
5 | Cc1nc(Nc2ncc(C(=O)Nc3c(C)cccc3Cl)s2)cc(N2CCN(CCO)CC2)n1 [Dasatinib] (100 nM) | 54.8 | 61.7 | 57.5 | 102 | 61.8 | 100 | 67.9 | 118 | 69.7 | 35.3 | 61.5 | 32.5 | 83.4 | 100 | 75.4 | 104
6 | Cc1c(CN2CCN(C(=O)[C@H](C)O)CC2)sc2c(N3CCOCC3)nc(-c3cnc(N)nc3)nc12 [GDC-0980] (1000 nM) | 57 | 36.4 | 46.8 | 35.9 | 37.5 | 75.9 | 45.7 | 85.5 | 70.8 | 35.2 | 41.9 | 39.2 | 59.3 | 20.4 | 54.4 | 21.6
7 | Nc1cccc2c1CN(C1CCC(=O)NC1=O)C2=O (configuration not stated) [Lenalidomide] (1000 nM) | 97.7 | 97.6 | 93.8 | 98.2 | 108 | 102 | 101 | 116 | 100 | 101 | 104 | 103 | 99.9 | 87.1 | 111 | 101
8 | C[C@]12O[C@H](C[C@]1(O)CO)n1c3ccccc3c3c4c(c5c6ccccc6n2c5c31)CNC4=O [Lestaurtinib] (100 nM) | 83.6 | 76.1 | 62.8 | 83.9 | 94.9 | 74.1 | 79.4 | 67.2 | 91 | 95.8 | 80.2 | 62.3 | 86 | 64.4 | 49.7 | 62.4
9 | O=C1c2c(O)ccc(O)c2C(=O)c2c(NCCNCCO)ccc(NCCNCCO)c21 [Mitoxantrone] (100 nM) | 94.3 | 90.1 | 34.6 | 85.6 | 101 | 86.2 | 96 | 120 | 97.3 | 96.4 | 104 | 96.2 | 69.8 | 107 | 92.4 | 99.2
10 | Nc1ccccc1NC(=O)c1ccc(CNc2nccc(-c3cccnc3)n2)cc1 [Mocetinostat] (1000 nM) | 80.4 | 66 | 83.8 | 77 | 87.9 | 76.3 | 91 | 81.2 | 67.8 | 80.8 | 74 | 140 | 78.2 | 62.8 | 72 | 78
11 | COc1nc(N)nc2c1ncn2[C@@H]1O[C@H](CO)[C@@H](O)[C@@H]1O [Nelarabine] (1000 nM) | 83.7 | 94.1 | 98.7 | 85.6 | 99.1 | 91.3 | 89.3 | 113 | 96.2 | 96.7 | 98.7 | 82.8 | 92.1 | 87.3 | 92.1 | 80.7
12 | Cc1ccc(Nc2nccc(N(C)c3ccc4c(C)n(C)nc4c3)n2)cc1S(N)(=O)=O [Pazopanib] (1000 nM) | 93.9 | 98.4 | 87.3 | 98.6 | 101 | 104 | 106 | 106 | 94.5 | 100 | 95.6 | 92.5 | 103 | 113 | 103 | 102
13 | O=C(CCBr)N1CCN(C(=O)CCBr)CC1 [Pipobroman] (1000 nM) | 93.9 | 102 | 99.3 | 101 | 105 | 95.8 | 112 | 109 | 103 | 97.2 | 108 | 97 | 96.6 | 101 | 99.6 | 106
14 | C[C@]12C=CC(=O)C=C1CC[C@@H]1[C@@H]2[C@@H](O)C[C@@]2(C)[C@H]1CC[C@]2(O)C(=O)CO [Prednisolone] (1000 nM) | 158 | 102 | 75.2 | 102 | 113 | 101 | 102 | 109 | 97.6 | 85.8 | 113 | 101 | 99.7 | 98.1 | 121 | 90.3
15 | CNC(=O)c1cc(Oc2ccc(NC(=O)Nc3ccc(Cl)c(C(F)(F)F)c3)cc2)ccn1 [Sorafenib] (100 nM) | 101 | 106 | 111 | 110 | 107 | 105 | 105 | 98.7 | 104 | 103 | 90.6 | 122 | 109 | 90.5 | 117 | 104
16 | CCN(CC)CCNC(=O)c1c(C)[nH]c(/C=C2\C(=O)Nc3ccc(F)cc32)c1C [Sunitinib] (100 nM) | 107 | 107 | 103 | 104 | 104 | 99.7 | 108 | 107 | 99.4 | 101 | 102 | 95.5 | 105 | 92 | 108 | 112
17 | CC[C@@]1(O)C(=O)OCc2c1cc1n(c2=O)Cc2cc3c(CN(C)C)c(O)ccc3nc2-1 [Topotecan] (1000 nM) | 81.8 | 51.5 | 75.6 | 24.3 | 50.1 | 38.4 | 55.1 | 24.1 | 79.3 | 86.9 | 99.1 | 79.2 | 42.6 | 87.6 | 11.1 | 47.6
